According to paper PMC7519074, “Polar functional group-containing glycolipid CD1d ligands modulate cytokine-biasing responses and prevent experimental colitis” (Scientific Reports, 2020):
Converted amounts (≈) assume the structure as drawn.

Columns and labels:
mCD1d-Fc fusion protein [1] = target: T1, mCD1d-Fc fusion protein (Mus musculus, UniProt P11609); test: Antigen presenting cell (APC)-free assay for lipid binding to mCD1d-Fc; IL-2 release by 2E10 NKT hybridoma cells; type: cell-based; set-up: unit not given here; details: mean ± SEM; for IL-2 production (exact values of IL-2): ligand 10 nM, Fig. 3a, b; for IL-2 production: ligand 100 nM, Fig. 3c, d
T1 construct: Ig (mouse immunoglobulin fusion partner); purchased BD Biosciences
T1 sequence (P11609 22-305 limits assumed): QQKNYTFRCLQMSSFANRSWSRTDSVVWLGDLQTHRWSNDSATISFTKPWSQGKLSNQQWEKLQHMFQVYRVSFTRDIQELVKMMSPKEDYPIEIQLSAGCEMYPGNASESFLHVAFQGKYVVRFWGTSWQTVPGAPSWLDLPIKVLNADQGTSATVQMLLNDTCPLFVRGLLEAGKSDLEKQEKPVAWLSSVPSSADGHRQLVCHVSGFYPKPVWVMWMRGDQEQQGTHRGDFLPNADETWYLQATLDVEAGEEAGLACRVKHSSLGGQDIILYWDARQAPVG
T1 sequence (P01887 21-119 partner): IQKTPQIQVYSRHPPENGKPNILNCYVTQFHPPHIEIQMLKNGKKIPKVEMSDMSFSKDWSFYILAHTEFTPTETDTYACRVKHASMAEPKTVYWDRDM
Method: NKT hybridoma 2E10 cells were cultured in RPMI-1640 (NACALAI TESQUE, INC) supplemented with 10% fetal bovine serum (FBS; Biowest), and 1% penicillin–streptomycin (Gibco).
For this assay, 96-well microplates (Bio-one 96-well cell culture plate, Greiner) were coated with mouse CD1d:Ig Fusion protein (BD Biosciences) (0.25 μg/well) in PBS at 37 °C for 24 h. […] After washing, 2E10 NKT hybridoma cells (2.5 × 10^5 cells/well) were added and cultured at 37 °C for 48 h. IL-2 release was measured with an ELISA kit (Affymetrix).

mouse splenocytes = test: Cytokine secretion assay using mouse splenocyte; type: cell-based, C57BL/6 mice; set-up: IFN-γ production / IL-4 production / IL-17A production: unit not given here; details: for Relative ratio IL-4/IFN-γ of cytokine production compared to α-GalCer / Relative ratio IL-17A/IFN-γ of cytokine production compared to α-GalCer: 1 nM; for Relative ratio IL-4/IFN-γ of cytokine production compared to α-GalCer: Fig. 5a; for Relative ratio IL-17A/IFN-γ of cytokine production compared to α-GalCer: Fig. 5b; for IL-4 production / IL-17A production / IFN-γ production: 48 h; for cytokine polarization in words: from relative ratios, Fig. 5
Method: Spleen cell suspensions (from C57BL/6 mice) were prepared in complete medium (RPMI 1,640 media supplemented with 10% FBS and 1% penicillin–streptomycin) and seeded into 96-well plates (6.0 × 10^5 cells/well). Lipid ligands were added, and the mixture were incubated at 37 °C for 48 h. IFN-γ, IL-4 and IL-17A release were measured with an ELISA kit (Affymetrix).

mCD1d-Fc fusion protein [2] = target: T1, mCD1d-Fc fusion protein; set-up: method as in PMID 27648599; details: previously reported; cited from earlier work
[3] = Metabolic stability, rat liver microsome; type: in vitro ADME; details: for half-life: liver microsomes, read-out: metabolic stability (liver microsome, T1/2) rat
[4] = Metabolic stability, human liver microsome; type: in vitro ADME; details: for half-life: liver microsomes, read-out: metabolic stability (liver microsome, T1/2) human
Water solubility = type: physicochemical
[5] = Table S1, dash = below the detection limit (< 5 μM) according to b25

SMILES: CCCCCCCCCCCCCC[C@@H](O)[C@@H](O)[C@H](CO[C@H]1O[C@H](CO)[C@H](O)[C@H](O)[C@H]1O)NC(=O)CCCCCCCCCCCNCCCCCCC [6b]
- IL-2 production (exact values of IL-2) (mCD1d-Fc fusion protein [1]): 74 ± 26
- Relative ratio IL-4/IFN-γ of cytokine production compared to α-GalCer (mouse splenocytes): 18.3 ± 6.8
- Relative ratio IL-17A/IFN-γ of cytokine production compared to α-GalCer (mouse splenocytes): 66.7 ± 27.4
- IL-4 production (mouse splenocytes; 10 nM ligand, Fig. 4e): 513 ± 11
- IL-17A production (mouse splenocytes; 10 nM ligand, Fig. 4f): 990 ± 101
- IFN-γ production (mouse splenocytes; 10 nM ligand, Fig. 4d): 3,764 ± 450
- cytokine polarization in words (mouse splenocytes): IL-4- and IL-17A-biasing properties

SMILES: CCCCCCCCCCCCCC[C@@H](O)[C@@H](O)[C@H](CO[C@H]1O[C@H](CO)[C@H](O)[C@H](O)[C@H]1O)NC(=O)CCCCCCCCCCCNC(=O)CCCCCCCCCCCC [1a]
- IL-2 production (exact values of IL-2) (mCD1d-Fc fusion protein [1]): 177 ± 27
- IL-2 production (mCD1d-Fc fusion protein [1]): 2,502 ± 114
- IFN-γ production (mouse splenocytes; 1 nM ligand, Fig. 4a): 16,907 ± 3,679
- IL-4 production (mouse splenocytes; 1 nM ligand, Fig. 4b): 247 ± 19
- IFN-γ production (mouse splenocytes; 1 nM ligand, Fig. S2a): 9,152 ± 373
- IL-4 production (mouse splenocytes; 1 nM ligand, Fig. S2b): 232 ± 41
- IL-17A production (mouse splenocytes; 1 nM ligand, Fig. S2c): 1,276 ± 60
- Relative ratio IL-4/IFN-γ of cytokine production compared to α-GalCer (mouse splenocytes): 1.27 ± 0.23
- Relative ratio IL-17A/IFN-γ of cytokine production compared to α-GalCer (mouse splenocytes): 0.76 ± 0.06
- cytokine polarization in words (mouse splenocytes): relatively less selective cytokine responses
- cytokine production / agonistic activity relative to α-GalCer, in words (mCD1d-Fc fusion protein [2]): higher levels of cytokine production relative to that caused by α-GalCer
- metabolic stability in words [3]: good metabolic stability
- half-life [3]: 47 min
- metabolic stability in words [4]: good metabolic stability
- half-life [4]: 60 min
- solubility (Water solubility; [5]): < 5 µM

SMILES: CCCCCCCCCCCCCCCCCCCC(=O)N[C@@H](CO[C@H]1O[C@H](CO)[C@H](O)[C@H](O)[C@H]1O)[C@H](O)[C@H](O)CCCCCCCCCCCCCC [C20:0-α-GalCer, reference compound]
- IL-4 production (mouse splenocytes; 10 nM ligand, Fig. 4e): 85 ± 52
- IL-17A production (mouse splenocytes; 10 nM ligand, Fig. 4f): 696 ± 38
- IFN-γ production (mouse splenocytes; 10 nM ligand, Fig. 4d): 1,353 ± 731

SMILES: CCCCCCCCCCCCCC[C@@H](O)[C@@H](O)[C@H](CO[C@H]1O[C@H](CO)[C@H](O)[C@H](O)[C@H]1O)NC(=O)CCCCCCCCCCCNC(=O)CCCCCC [1b]
- IL-2 production (exact values of IL-2) (mCD1d-Fc fusion protein [1]): 662 ± 46
- IFN-γ production (mouse splenocytes; 1 nM ligand, Fig. S2a): 822 ± 11
- IL-17A production (mouse splenocytes; 1 nM ligand, Fig. S2c): 976 ± 207
- Relative ratio IL-4/IFN-γ of cytokine production compared to α-GalCer (mouse splenocytes): 5.04 ± 0.90
- Relative ratio IL-17A/IFN-γ of cytokine production compared to α-GalCer (mouse splenocytes): 6.43 ± 1.27
- cytokine polarization in words (mouse splenocytes): IL-4- and IL-17A-biasing properties
- cytokine production / agonistic activity relative to α-GalCer, in words (mCD1d-Fc fusion protein [2]): higher levels of cytokine production relative to that caused by α-GalCer
- metabolic stability in words [3]: good metabolic stability
- half-life [3]: > 200 min
- metabolic stability in words [4]: good metabolic stability
- half-life [4]: > 200 min
- solubility (Water solubility; detection limit 5 μM): 5 µM (≈ 3.95 µg/mL)

SMILES: CCCCCCCCCCCC/C=C\CCCCCCCCCCCC(=O)N[C@@H](CO[C@H]1O[C@H](CO)[C@H](O)[C@H](O)[C@H]1O)[C@H](O)[C@H](O)CCCCCCCCCCCCCC [9a]
- IL-2 production (mCD1d-Fc fusion protein [1]): 1556 ± 91

SMILES: CCCCCC/C=C\CCCCCCCCCCCC(=O)N[C@@H](CO[C@H]1O[C@H](CO)[C@H](O)[C@H](O)[C@H]1O)[C@H](O)[C@H](O)CCCCCCCCCCCCCC [9b]
- IL-2 production (mCD1d-Fc fusion protein [1]): 925 ± 57

SMILES: CCCCCCCCCCCC/C=C/CCCCCCCCCCCC(=O)N[C@@H](CO[C@H]1O[C@H](CO)[C@H](O)[C@H](O)[C@H]1O)[C@H](O)[C@H](O)CCCCCCCCCCCCCC [8a]
- IL-2 production (mCD1d-Fc fusion protein [1]): 1626 ± 371

SMILES: CCCCCCCCCCCCCC[C@@H](O)[C@@H](O)[C@H](CO[C@H]1O[C@H](CO)[C@H](O)[C@H](O)[C@H]1O)NC(=O)CCCCCCCCCCCN(C)C(=O)CCCCCCCCCCCC [4a]
- IL-2 production (exact values of IL-2) (mCD1d-Fc fusion protein [1]): 749 ± 92
- IFN-γ production (mouse splenocytes; 1 nM ligand, Fig. 4a): 39,159 ± 4,960
- IL-4 production (mouse splenocytes; 1 nM ligand, Fig. 4b): 599 ± 13
- metabolic stability in words [3]: metabolized more rapidly
- half-life [3]: 23 min
- metabolic stability in words [4]: metabolized more rapidly
- half-life [4]: 15 min
- solubility (Water solubility; [5]): < 5 µM

SMILES: CCCCCC/C=C/CCCCCCCCCCCC(=O)N[C@@H](CO[C@H]1O[C@H](CO)[C@H](O)[C@H](O)[C@H]1O)[C@H](O)[C@H](O)CCCCCCCCCCCCCC [8b]
- IL-2 production (mCD1d-Fc fusion protein [1]): 334 ± 19

SMILES: CCCCCCCCCCCCCC[C@@H](O)[C@@H](O)[C@H](CO[C@H]1O[C@H](CO)[C@H](O)[C@H](O)[C@H]1O)NC(=O)CCCCCCCCCCCN(C)C(=O)CCCCCC [4b]
- IL-2 production (exact values of IL-2) (mCD1d-Fc fusion protein [1]): 546 ± 87
- IL-4 production (mouse splenocytes; 10 nM ligand, Fig. 4e): 743 ± 11
- IL-17A production (mouse splenocytes; 10 nM ligand, Fig. 4f): 2095 ± 190
- IFN-γ production (mouse splenocytes; 10 nM ligand, Fig. 4d): 17,753 ± 542

SMILES: CCCCCCCCCCCCCC[C@@H](O)[C@@H](O)[C@H](CO[C@H]1O[C@H](CO)[C@H](O)[C@H](O)[C@H]1O)NC(=O)CCCCCCCCCCCNC(=O)NCCCCC [5b]
- IL-2 production (exact values of IL-2) (mCD1d-Fc fusion protein [1]): 376 ± 92
- IL-4 production (mouse splenocytes; 10 nM ligand, Fig. 4e): 723 ± 73
- IL-17A production (mouse splenocytes; 10 nM ligand, Fig. 4f): 1774 ± 278
- IFN-γ production (mouse splenocytes; 10 nM ligand, Fig. 4d): 10,799 ± 950

SMILES: CCCCCCCCCCCCCC[C@@H](O)[C@@H](O)[C@H](CO[C@H]1O[C@H](CO)[C@H](O)[C@H](O)[C@H]1O)NC(=O)CCCCCCCCCCCNCCCCCCCCCCCCC [6a]
- IL-2 production (exact values of IL-2) (mCD1d-Fc fusion protein [1]): 323 ± 41
- IFN-γ production (mouse splenocytes; 1 nM ligand, Fig. 4a): 8,515 ± 1,016
- IL-4 production (mouse splenocytes; 1 nM ligand, Fig. 4b): 286 ± 12
- metabolic stability in words [3]: good metabolic stability
- half-life [3]: > 200 min
- metabolic stability in words [4]: good metabolic stability
- half-life [4]: > 200 min
- solubility (Water solubility; [5]): < 5 µM

SMILES: CCCCCCCCCCCCCC[C@@H](O)[C@@H](O)[C@H](CO[C@H]1O[C@H](CO)[C@H](O)[C@H](O)[C@H]1O)NC(=O)CCCCCCCCCCCCC(=O)CCCCCC [7b]
- IL-2 production (exact values of IL-2) (mCD1d-Fc fusion protein [1]): 600 ± 20
- Relative ratio IL-4/IFN-γ of cytokine production compared to α-GalCer (mouse splenocytes): 12.7 ± 4.0
- Relative ratio IL-17A/IFN-γ of cytokine production compared to α-GalCer (mouse splenocytes): 48.6 ± 15.6
- IL-4 production (mouse splenocytes; 10 nM ligand, Fig. 4e): 448 ± 40
- IL-17A production (mouse splenocytes; 10 nM ligand, Fig. 4f): 656 ± 69
- IFN-γ production (mouse splenocytes; 10 nM ligand, Fig. 4d): 4,276 ± 261
- cytokine polarization in words (mouse splenocytes): IL-4- and IL-17A-biasing properties

SMILES: CCCCCCCCCCCCCC[C@@H](O)[C@@H](O)[C@H](CO[C@H]1O[C@H](CO)[C@H](O)[C@H](O)[C@H]1O)NC(=O)CCCCCCCCCCCCC(=O)CCCCCCCCCCCC [7a]
- IL-2 production (exact values of IL-2) (mCD1d-Fc fusion protein [1]): 424 ± 32

SMILES: CCCCCCCCCCCCCC[C@@H](O)[C@@H](O)[C@H](CO[C@H]1O[C@H](CO)[C@H](O)[C@H](O)[C@H]1O)NC(=O)CCCCCCCCCCCNC(=O)NCCCCCCCCCCC [5a]
- IL-2 production (exact values of IL-2) (mCD1d-Fc fusion protein [1]): 85 ± 26
